Test results: patent publication US20220125844A1 (priority 2020, published 2022)

Assays:
[1] = test system: primary human natural killer (NK) cells; details: cited from earlier work
[2] = test system: CAR-NK cells (effector) with MV-4-11 target cells; assay: CAR-NK cell apoptosis assay, annexin V staining and flow cytometry; assay type: cell-based, human; details: clinically-relevant concentration, morphine 25 ng/mL, two-hour incubation of effector cells; data only in FIG. 1
[3] = test system: primary human NK cells (effector) with MV-4-11 target cells; assay: Primary human NK cell apoptosis assay, annexin V staining and flow cytometry; assay type: cell-based; details: clinically-relevant concentration, morphine 25 ng/mL, two-hour incubation of effector cells; data only in FIG. 1

C[C@@H](NC(=O)[C@@H](N)Cc1ccc(O)cc1)C(=O)NCC(=O)N(C)[C@@H](Cc1ccccc1)C(=O)NCCO [DAMGO, [D-Ala2, N-Me-Phe4, Gly5-ol]-enkephalin]
primary human NK cell cytotoxicity after preincubation with opioid [1]: reduced

CCC(=O)C(CC(C)N(C)C)(c1ccccc1)c1ccccc1 (centres unmarked) [methadone]
primary human NK cell cytotoxicity after preincubation with opioid [1]: reduced

CN1CC[C@]23c4c5ccc(O)c4O[C@H]2[C@@H](O)C=C[C@H]3[C@H]1C5 [morphine]
primary human NK cell cytotoxicity after preincubation with opioid [1]: reduced | effect on CAR-NK cell function (ability to induce apoptosis in MV-4-11 cells) [2]: functionally inhibited | effect on primary human NK cell function (ability to induce apoptosis in MV-4-11 cells) [3]: functionally inhibited
